Data reported in ChEMBL document CHEMBL1141758, “Gesashidine A, a beta-carboline alkaloid with an imidazole ring from a Thorectidae sponge” (J Nat Prod, 2005).
The source made the active and inactive calls. The calls are words filed in the database; no cut-off is given here.

Experiments:
Micrococcus luteus = assay: Antimicrobial activity against Micrococcus luteus; type: functional
L1210 = assay: Cytotoxicity against mouse L1210 cells; type: functional, cell-based
KB = assay: Cytotoxicity against human KB cells; type: functional, cell-based

MIC (Micrococcus luteus) [µg/mL] | SMILES | Activity (Micrococcus luteus) | IC50 (L1210) [µg/mL] | IC50 (KB) [µg/mL]
 | CSc1c(Cc2nc(C(=O)[O-])cc3c2[nH]c2ccc(O)cc23)n(C)c[n+]1C | inactive |  | 
 | CSc1c(C(=O)c2nc(C(=O)[O-])cc3c2[nH]c2ccc(O)cc23)n(C)c[n+]1C | inactive |  | 
16.6 | CSc1c(Cc2nccc3c2[nH]c2ccc(O)cc23)n(C)c[n+]1C [GESASHIDINE A] |  | > 10 | > 10
